Experiment [1] has as its target T1, Induced myeloid leukemia cell differentiation protein Mcl-1 (Homo sapiens, UniProt Q07820).
Description: Inhibition of FITC-labeled Bim peptide binding to His6-tagged MBP-fused Mcl-1 (unknown origin) by fluorescence polarization assay
In experiment [2] the target is T1, Induced myeloid leukemia cell differentiation protein Mcl-1. The source holds these as a separate data set.
Description: Inhibition of FITC-labeled Bim peptide binding to His6-tagged MBP-fused Mcl-1 (unknown origin) in presence of 1% fetal bovine serum by fluorescence polarization assay
Experiment [3] has the same target. This is another data set of the same source.
Description: Inhibition of FITC-labeled Bak peptide binding to MBP-fused Mcl-1 (unknown origin) measured after 3 hrs by TR-FRET assay
For experiment [4] the target is unchanged. This is another data set of the same source.
Description: Inhibition of FITC-labeled Bak peptide binding to MBP-fused Mcl-1 (unknown origin) measured after 3 hrs in presence of 1% fetal bovine serum by TR-FRET assay
For a further experiment, the target named is Bcl-2-like protein 1 (Homo sapiens, UniProt Q07817).
Experiment [5] deals with Apoptosis regulator Bcl-2 (Homo sapiens, UniProt P10415).
Description: Inhibition of FITC-labeled Bak peptide binding to Bcl-2 (unknown origin) after 0.5 hrs by fluorescence polarization assay
A further experiment concerns NCI-H929. Put plainly: cells. Conditions: Homo sapiens, NCI-H929, 72 h.
Another experiment has as its system K562. Put plainly: cells. Conditions: Homo sapiens, K562, 72 h.

T1 sequence (Q07820 whole entry): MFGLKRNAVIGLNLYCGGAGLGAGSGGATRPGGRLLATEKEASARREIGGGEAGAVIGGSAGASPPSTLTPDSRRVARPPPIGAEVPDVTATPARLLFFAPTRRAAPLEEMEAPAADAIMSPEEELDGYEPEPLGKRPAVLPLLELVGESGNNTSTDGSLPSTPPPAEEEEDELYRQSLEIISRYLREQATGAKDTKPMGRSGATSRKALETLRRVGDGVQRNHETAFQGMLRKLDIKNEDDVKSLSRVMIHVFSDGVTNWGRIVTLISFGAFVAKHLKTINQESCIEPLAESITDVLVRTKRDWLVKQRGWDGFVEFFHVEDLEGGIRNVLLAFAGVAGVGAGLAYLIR
Sequence of Bcl-2-like protein 1 (Q07817 whole entry): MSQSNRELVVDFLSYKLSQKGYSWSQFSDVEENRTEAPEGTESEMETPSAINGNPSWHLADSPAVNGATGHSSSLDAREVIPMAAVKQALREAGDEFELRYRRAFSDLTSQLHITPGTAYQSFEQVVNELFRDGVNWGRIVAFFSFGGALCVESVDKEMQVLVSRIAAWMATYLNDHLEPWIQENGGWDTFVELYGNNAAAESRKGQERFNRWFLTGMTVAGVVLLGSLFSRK
Sequence of Apoptosis regulator Bcl-2 (P10415 whole entry): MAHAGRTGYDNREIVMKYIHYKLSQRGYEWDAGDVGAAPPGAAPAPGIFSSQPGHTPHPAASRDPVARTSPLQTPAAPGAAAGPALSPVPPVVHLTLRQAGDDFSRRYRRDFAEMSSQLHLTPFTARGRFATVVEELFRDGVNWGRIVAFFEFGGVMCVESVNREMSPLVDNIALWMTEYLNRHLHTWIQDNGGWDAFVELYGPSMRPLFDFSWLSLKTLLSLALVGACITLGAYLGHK
Description for Bcl-2-like protein 1: Inhibition of FITC-labeled Bak peptide binding to Bcl-xL (unknown origin) after 0.5 hrs by fluorescence polarization assay
Description for K562: Antiproliferative activity against Mcl1-insensitive human K562 cells assessed as cell growth inhibition after 72 hrs by Celltiter-glo luminescence assay
Description for NCI-H929: Antiproliferative activity against Mcl1-sensitive human NCI-H929 cells assessed as cell growth inhibition after 72 hrs by Celltiter-glo luminescence assay

The Ki is the dissociation constant of the complex between target and ligand, obtained from inhibition or displacement. As for `Cc1cc(OCCCc2c3n(c4c(-c5c(C)nn(C)c5C)c(Cl)ccc24)CCN(Cc2ccc(C(=O)O)cc2)C3=O)cc(C)c1Cl`, the Ki in experiment [1] is 7.2 nM; in experiment [2], 51 nM.

Regarding `Cc1cc(OCCCc2c3n(c4c(-c5c(C)nn(C)c5C)c(Cl)ccc24)C[C@@H](C)NC3=O)cc(C)c1Cl`, the Ki in experiment [1] was found to be 27 nM; in experiment [2] it was 151 nM.

As for `Cc1cc(OCCCc2c3n(c4c(-c5c(C)nn(C)c5C)c(Cl)ccc24)C[C@@H](C)N(Cc2cccc(C(=O)O)c2)C3=O)cc(C)c1Cl`, the Ki turned out to be 2.1 nM in experiment [1] and 67 nM in experiment [2].

On to `Cc1cc(OCCCc2c3n(c4c(-c5c(C)nn(C)c5C)c(Cl)ccc24)CCC(C)NC3=O)cc(C)c1Cl` (configuration not stated), for which the Ki was 70 nM in experiment [1] and over 200 nM in experiment [2].

As for `Cc1cc(OCCCc2c3n(c4c(-c5c(C)nn(C)c5C)c(Cl)ccc24)CCCNC3=O)cc(C)c1Cl`, the figures for the Ki in experiment [1] and in experiment [2] were 12 nM and 101 nM, respectively.

For the molecule `Cc1cc(OCCCc2c3n(c4c(-c5c(C)nn(C)c5C)c(Cl)ccc24)[C@@H](C)CN(Cc2cccc(C(=O)O)c2)C3=O)cc(C)c1Cl`, the Ki worked out at 37 nM in experiment [1] and 170 nM in experiment [2].

For the molecule `Cc1cc(OCCCc2c3n(c4c(-c5c(C)nn(C)c5C)c(Cl)ccc24)CCC(C)N(Cc2ccc(C(=O)O)cc2)C3=O)cc(C)c1Cl` (configuration not stated), the figures for the inhibition constant (Ki) in experiment [1] and in experiment [2] were 6.6 nM and 42 nM, respectively.

Regarding `Cc1cc(OCCCc2c3n(c4c(-c5c(C)nn(C)c5C)c(Cl)ccc24)CC(C)CN(Cc2ccc(C(=O)O)o2)C3=O)cc(C)c1Cl` (configuration not stated), the Ki in experiment [1] came out at 7.6 nM; in experiment [2] it was 81 nM.

Turning to `Cc1cc(OCCCc2c3n(c4c(-c5c(C)nn(C)c5C)c(Cl)ccc24)C(C)CCNC3=O)cc(C)c1Cl` (configuration not stated), the Ki in experiment [1] was 43 nM; in experiment [2] it was over 200 nM.

On to `Cc1cc(OCCCc2c3n(c4c(-c5c(C)nn(C)c5C)c(Cl)ccc24)C[C@H](C)N(Cc2ccc(C(=O)O)o2)C3=O)cc(C)c1Cl`, for which the values for the Ki in experiment [1] and in experiment [2] were 8.7 nM and 150 nM, respectively.

Broadly, the GI50 is the concentration at which growth is held to half of that of the control. A higher GI50 goes with less potent growth inhibition. For the molecule `Cc1cc(OCCCc2c3n(c4c(-c5c(C)nn(C)c5C)c(Cl)ccc24)[C@H](C)CN(c2cn(C)c4cc(C(=O)O)ccc24)C3=O)cc(C)c1Cl`, the inhibitory constant (Ki) in experiment [3] was 0.081 nM; in experiment [4], 0.38 nM; on Bcl-2-like protein 1 it was over 40000 nM; in experiment [5] it was 500 nM. The concentration for 50% growth inhibition (GI50) in the experiment on NCI-H929 is 290 nM; with K562 it was over 12500 nM.

With `Cc1cc(OCCCc2c3n(c4c(-c5c(C)nn(C)c5C)c(Cl)ccc24)[C@H](C)CN(Cc2ccc(C(=O)O)cc2)C3=O)cc(C)c1Cl`, the inhibition constant (Ki) in experiment [1] was 0.77 nM; in experiment [2], 6.7 nM.

Turning to `Cc1cc(OCCCc2c3n(c4c(-c5c(C)nn(C)c5C)c(Cl)ccc24)C[C@H](C)N(Cc2ccc(C(=O)O)cc2)C3=O)cc(C)c1Cl`, the inhibition constant Ki is 9.6 nM in experiment [1] and 54 nM in experiment [2].

For the molecule `Cc1cc(OCCCc2c3n(c4c(-c5c(C)nn(C)c5C)c(Cl)ccc24)[C@@H](C)CN(Cc2ccc(C(=O)O)cc2)C3=O)cc(C)c1Cl`, the results for the inhibition constant (Ki) in experiment [1] and in experiment [2] were 35 nM and 191 nM, respectively.

With `Cc1cc(OCCCc2c3n(c4c(-c5c(C)nn(C)c5C)c(Cl)ccc24)[C@@H](C)CN(Cc2ccc(C(=O)O)o2)C3=O)cc(C)c1Cl`, the Ki in experiment [1] was found to be 22 nM; in experiment [2] it was 193 nM.

Take `Cc1cc(OCCCc2c3n(c4c(-c5c(C)nn(C)c5C)c(Cl)ccc24)[C@H](C)CN(c2cc(C(=O)O)cc4c2ccn4C)C3=O)cc(C)c1Cl`: the Ki was 1.3 nM in experiment [3], 6.8 nM in experiment [4], over 40000 nM on Bcl-2-like protein 1 and 630 nM in experiment [5]. In addition, the values for the GI50 with NCI-H929 and in the experiment with K562 were 2100 nM and over 12500 nM, respectively.

For the molecule `Cc1cc(OCCCc2c3n(c4c(-c5c(C)nn(C)c5C)c(Cl)ccc24)C[C@H](C)N(Cc2cccc(C(=O)O)c2)C3=O)cc(C)c1Cl`, the Ki in experiment [1] was 9.9 nM; in experiment [2], 97 nM.

Turning to `Cc1cc(OCCCc2c3n(c4c(-c5c(C)nn(C)c5C)c(Cl)ccc24)CCC(C)N(Cc2ccc(C(=O)O)o2)C3=O)cc(C)c1Cl` (configuration not stated), the figures for the Ki in experiment [1] and in experiment [2] were 8.2 nM and 120 nM, respectively.

Turning to `Cc1cc(OCCCc2c3n(c4c(-c5c(C)nn(C)c5C)c(Cl)ccc24)C[C@@H](C)N(Cc2ccc(C(=O)O)cc2)C3=O)cc(C)c1Cl`, the inhibitory constant (Ki) in experiment [1] was 1.8 nM; in experiment [2], 53 nM.

For `Cc1cc(OCCCc2c3n(c4c(-c5c(C)nn(C)c5C)c(Cl)ccc24)CC(C)CN(Cc2ccc(C(=O)O)cc2)C3=O)cc(C)c1Cl` (configuration not stated), the Ki in experiment [1] stood at 7.1 nM; in experiment [2] it was 22 nM.

Take `Cc1cc(OCCCc2c3n(c4c(-c5c(C)nn(C)c5C)c(Cl)ccc24)[C@H](C)CN(Cc2ccc(C(=O)O)o2)C3=O)cc(C)c1Cl`: the results for the Ki in experiment [1] and in experiment [2] were 1 nM and 26 nM, respectively.

Regarding `Cc1cc(OCCCc2c3n(c4c(-c5c(C)nn(C)c5C)c(Cl)ccc24)[C@H](C)CN(c2cccc4c(C(=O)O)cccc24)C3=O)cc(C)c1Cl`, the Ki in experiment [3] worked out at 0.33 nM; in experiment [4], 0.77 nM; at Bcl-2-like protein 1, 26000 nM; in experiment [5], 380 nM. For the same molecule, the GI50 with K562 was determined as 2500 nM.

Consider `Cc1cc(OCCCc2c3n(c4c(-c5c(C)nn(C)c5C)c(Cl)ccc24)C[C@H](C)NC3=O)cc(C)c1Cl`, for which the Ki in experiment [1] is 73 nM; in experiment [2], 145 nM.

In the case of `Cc1cc(OCCCc2c3n(c4c(-c5c(C)nn(C)c5C)c(Cl)ccc24)[C@H](C)CN(c2ccc(C(=O)O)cc2)C3=O)cc(C)c1Cl`, the Ki was 1.3 nM in experiment [3], 4.5 nM in experiment [4], over 40000 nM on Bcl-2-like protein 1 and 690 nM in experiment [5]. Besides, the GI50 in the experiment with NCI-H929 was 4000 nM; with K562 it was over 12500 nM.

Regarding `Cc1cc(OCCCc2c3n(c4c(-c5c(C)nn(C)c5C)c(Cl)ccc24)[C@H](C)CN(c2cccc(C(=O)O)c2)C3=O)cc(C)c1Cl`, the Ki was 1.4 nM in experiment [3], 2.6 nM in experiment [4], over 40000 nM on Bcl-2-like protein 1 and 990 nM in experiment [5]. For the same molecule, the GI50 was 4400 nM in the experiment on NCI-H929 and over 12500 nM with K562.

For `Cc1cc(OCCCc2c3n(c4c(-c5c(C)nn(C)c5C)c(Cl)ccc24)[C@H](C)CN(c2cc(C(=O)O)cc4c2OCO4)C3=O)cc(C)c1Cl`, the inhibitory constant (Ki) came to 0.42 nM in experiment [3], 1.4 nM in experiment [4], 25000 nM at Bcl-2-like protein 1 and 630 nM in experiment [5]. For the same molecule, the figures for the concentration for 50% growth inhibition (GI50) in the experiment with NCI-H929 and in the experiment on K562 were 1700 nM and over 12500 nM, respectively.

With `Cc1cc(OCCCc2c3n(c4c(-c5c(C)nn(C)c5C)c(Cl)ccc24)[C@H](C)CN(c2cc(C(=O)O)c4ccn(C)c4c2)C3=O)cc(C)c1Cl`, the Ki was 0.21 nM in experiment [3], 1.5 nM in experiment [4], over 40000 nM on Bcl-2-like protein 1 and 770 nM in experiment [5]. Further, the GI50 in the experiment with NCI-H929 was 820 nM; with K562 it was over 12500 nM.

Regarding `Cc1cc(OCCCc2c3n(c4c(-c5c(C)nn(C)c5C)c(Cl)ccc24)CCN(Cc2cccc(C(=O)O)c2)C3=O)cc(C)c1Cl`, the Ki was determined as 9.6 nM in experiment [1] and 52 nM in experiment [2].

As for `Cc1cc(OCCCc2c3n(c4c(-c5c(C)nn(C)c5C)c(Cl)ccc24)[C@H](C)CN(Cc2cccc(C(=O)O)c2)C3=O)cc(C)c1Cl`, the Ki in experiment [1] was 1.1 nM; in experiment [2], 26 nM.

For `Cc1cc(OCCCc2c3n(c4c(-c5c(C)nn(C)c5C)c(Cl)ccc24)CC(C)CNC3=O)cc(C)c1Cl` (configuration not stated), the inhibition constant Ki in experiment [1] was 42 nM; in experiment [2], 150 nM.

Turning to `Cc1cc(OCCCc2c3n(c4c(-c5c(C)nn(C)c5C)c(Cl)ccc24)CCC(C)N(Cc2cccc(C(=O)O)c2)C3=O)cc(C)c1Cl` (configuration not stated), the Ki in experiment [1] was 12 nM; in experiment [2], over 200 nM.

Take `Cc1cc(OCCCc2c3n(c4c(-c5c(C)nn(C)c5C)c(Cl)ccc24)CC(C)CN(Cc2cccc(C(=O)O)c2)C3=O)cc(C)c1Cl` (configuration not stated): the inhibitory constant (Ki) in experiment [1] was found to be 11 nM; in experiment [2], 144 nM.

Consider `Cc1cc(OCCCc2c3n(c4c(-c5c(C)nn(C)c5C)c(Cl)ccc24)C[C@@H](C)N(Cc2ccc(C(=O)O)o2)C3=O)cc(C)c1Cl`, for which the figures for the inhibition constant (Ki) in experiment [1] and in experiment [2] were 5.9 nM and 39 nM, respectively.

On to `Cc1cc(OCCCc2c3n(c4c(-c5c(C)nn(C)c5C)c(Cl)ccc24)CCNC3=O)cc(C)c1Cl`, for which the values for the Ki in experiment [1] and in experiment [2] were 35 nM and over 200 nM, respectively.

As to `Cc1cc(OCCCc2c3n(c4c(-c5c(C)nn(C)c5C)c(Cl)ccc24)CCN(Cc2ccc(C(=O)O)o2)C3=O)cc(C)c1Cl`, the Ki was 5.8 nM in experiment [1] and 137 nM in experiment [2].

For the origin of these results see ChEMBL document CHEMBL4385603 (J Med Chem, 2019).
